In PMC11370260 (Microbiology Spectrum, 2024):

Legend:
LasR = target: T1, LasR (Pseudomonas aeruginosa, UniProt P25084); assay: E. coli LasR bioreporter (Para-lasR, PlasI-lacZ), β-galactosidase readout; type: cell-based; settings: for IC50: IC50 ± CI, LasR reporter, competed against 100 nM 3OC12-HSL, 95% confidence interval in parentheses; for fold lower concentration inhibiting LasR-specific reporter than constitutive reporter: IC50 constitutive reporter vs LasR reporter
T1 construct: expressed in transfected cells; host or cells: E. coli DH5α carrying pJN105-L and pSC11-L
Text: (§1) To characterize compounds for their potential activity as LasR antagonists, we used heterologous E. coli, which enables LasR to be isolated from other host regulation effects. We used an E. coli strain expressing LasR from an arabinose-inducible promoter (Para-lasR) on plasmid pJN105-L and a second plasmid with the LasR-inducible lasI promoter fused to a promoterless lacZ reporter (PlasI-lacZ) on plasmid pSC11-L (Fig. 2A). […] As a control, we also constructed an E. coli strain carrying a plasmid with lacZ expressed from the constitutive aphA-3 promoter ([29], [30]), pVT19.
(§2) To assess LasR activation of lasR expression in recombinant E. coli, we used E. coli strain DH5α carrying two plasmids; plasmid pJN105-L ([50]) with an arabinose-inducible P. aeruginosa lasR and plasmid pSC11-L ([51]) with the promoter of the LasR-responsive gene lasI fused to a lacZ reporter. For some studies, pJN105-L was replaced with derivatives of this plasmid encoding LasR mutants with single amino acid substitutions ([33]). To assess RhlR activation of rhlR expression in recombinant E. coli, we used E. coli DH5α with plasmid pECP61.5 ([38]) with an IPTG-inducible ptac-rhlR and an RhlR-responsive gene rhlA fused to the lacZ reporter. For constitutive expression of the lacZ reporter, we used E. coli DH5α with plasmid pVT19, which has the lacZ gene fused to the constitutive aphA-3 promoter. To construct pVT19, the constitutive aphA-3 promoter ([29], [30]) was amplified from a pTCV-lac derivative using primers Vlac1 and Vlac2 ([30]). The resulting amplicon was digested with EcoRI and BamHI and ligated into similarly digested pKS12A ([52]). The resulting plasmid with the aphA-3 promoter transcriptionally fused to lacZ was designated pVT19. For constitutive expression of the gfp reporter, we used E. coli DH5α with plasmid pUC18T-mini-Tn7T-Gm-gfpmut3 ([53]).
(§3) To assess LasR activation of lasR expression in recombinant E. coli, overnight cultures of E. coli DH5α pSC11-L and pJN105-L were diluted 1:100 into LB containing selection antibiotics gentamicin and ampicillin in 10 mL cultures. When the cultures reached an OD600 of 0.2–0.3, L-(+)-arabinose was added to a final concentration of 0.25%. […] Aliquots (5 µL) of increasing concentrations of inhibitor test compound stock solution in DMSO were then added to the designated micro centrifuge tubes containing culture. Tubes containing E. coli with just signal and DMSO were included as controls. After 3 h at 37°C with shaking, OD600 was measured using a plate reader, and β-galactosidase activity was measured as described above.

RhlR = target: T2, RhlR (Pseudomonas aeruginosa, UniProt P54292); assay: E. coli RhlR bioreporter (pECP61.5, rhlA-lacZ), β-galactosidase readout; type: cell-based
T2 construct: expressed in transfected cells; host or cells: E. coli DH5α carrying pECP61.5
Text: (§4) To test the ability of our set of benzaldehydes and related compounds to antagonize RhlR, we generated dose-response curves with these compounds using an E. coli RhlR reporter strain (Fig. 6; Table 2). This strain is analogous to the LasR reporter above, but it carries plasmid pECP61.5 expressing RhlR from the isopropyl β-D-1-thiogalactopyranoside (IPTG)-inducible […] promoter as well as the rhlA-lacZ reporter ([38]). We also utilized our constitutive lacZ reporter plasmid pVT19 to generate dose-response curves using the RhlR assay conditions (Fig. 6; Table 2). […] With the constitutive lacZ reporter, there was a similar spread in potencies for our compounds, with ortho-vanillin having the lowest IC50 and salicylic acid as the highest. However, the IC50 for ortho-vanillin was fivefold lower with RhlR than with the constitutive lacZ reporter. There were also no observed effects of ortho-vanillin on growth until concentrations at which there was >50% antagonism of the RhlR reporter, and there was no antagonism of the constitutive lacZ reporter until concentrations >500 µM.
as §2
(§5) To assess RhlR activation of rhlR expression in recombinant E. coli, overnight cultures of E. coli DH5α pECP61.5 grown at 30°C in A medium containing antibiotic selection (ampicillin) and IPTG to induce RhlR expression were diluted to an OD600 of 0.1, and 1 mL was added to culture tubes containing dried C4-HSL. Aliquots (5 µL) of DMSO containing increasing concentrations of inhibitor test compound or DMSO with no test compound were added to the designated Eppendorf tubes containing culture. Tubes containing E. coli with signal and DMSO were included as vehicle control. After 5 h at 30°C with shaking, OD600 was measured using a plate reader, and β-galactosidase activity was measured as described above.

[1] = test system: constitutive aphA-3-lacZ reporter; assay: E. coli constitutive aphA-3-lacZ reporter (pVT19), LasR reporter conditions; type: cell-based; settings: Escherichia coli, read-out: IC50 ± CI, Constitutive reporter
Text: as §1, §2, §3
(§6) Experiments with the LasR mutants and the constitutive lacZ expression plasmid pVT19 or constitutive gfp expression plasmid pUC18T-mini-Tn7T-Gm-gfpmut3 were carried out identically as described above for the LasR or RhlR bioreporter experiments. Results with the […] constitutive reporter strain were different for the LasR vs RhlR bioreporter protocols likely due to differences in growth conditions (temperature and/or growth media).

[2] = test system: constitutive aphA-3-lacZ reporter; assay: E. coli constitutive aphA-3-lacZ reporter (pVT19), RhlR reporter conditions; type: cell-based, Escherichia coli; settings: for IC50: Escherichia coli
Text: as §4, §2, §5, §6

[3] = test system: constitutive GFP reporter; assay: E. coli constitutive GFP reporter (pUC18T-mini-Tn7T-Gm-gfpmut3); type: cell-based, Escherichia coli
Text: To test whether these effects were specific to the lacZ reporter or general to other reporters, we generated an orsellinaldehyde dose-response curve using a strain constitutively expressing GFP (E. coli carrying a constitutive GFP-producing plasmid pUC18T-mini-Tn7T-Gm-gfpmut3).
as §2, with “The resulting plasmid with the aphA-3 promoter transcriptionally fused to lacZ was designated pVT19. For constitutive expression of the gfp reporter, we used E. coli DH5α with plasmid pUC18T-mini-Tn7T-Gm-gfpmut3 ([53]).” left out

E. coli = assay: Growth (OD600) of E. coli reporter strain, LasR reporter conditions; type: cell-based, Escherichia coli; settings: at the highest concentrations
Description: as §3

LasR mutants [4] = target: T3, LasR mutants (Pseudomonas aeruginosa, UniProt P25084, S129A); assay: E. coli LasR mutant lasI-lacZ reporters (W60F, Y56F, T75V, Y93F, S129A); type: cell-based; settings: S129A mutant
T3 construct: expressed in transfected cells; host or cells: E. coli DH5α carrying pSC11-L and a pJN105-L mutant analog (pJG044, pJG008, pJG011, pJG012 or pJG014)
Text: (§7) To examine these putative interactions between ortho-vanillin and LasR, we determined the activity of ortho-vanillin in several LasR mutants. In prior studies in our laboratories, a set of LasR mutants were generated in which residues within the ligand-binding pocket were mutated to a different residue of similar steric size but without the capability to hydrogen bond (e.g., Tyr → Phe). These mutants were introduced into E. coli to generate lasI-lacZ reporters analogous to the wild-type LasR reporter above (see Table S1 and Materials and Methods). From that set, we selected five LasR mutant reporters to test ortho-vanillin (W60F, Y56F, T75V, Y93F, and S129A), which included the Thr75 and Ser129 residues predicted to be important for ortho-vanillin interaction in our in silico study. […] As a control, we also tested the ability of V-06–018 to antagonize the LasR S129A mutant. We used the same approach to test the ability of […] to antagonize LasR and the LasR S129A mutant. […] Results from one of the concentrations (100 µM) are shown instead.
as §2, with “The resulting amplicon was digested with EcoRI and BamHI and ligated into similarly digested pKS12A ([52]). The resulting plasmid with the aphA-3 promoter transcriptionally fused to lacZ was designated pVT19. For constitutive expression of the gfp reporter, we used E. coli DH5α with plasmid pUC18T-mini-Tn7T-Gm-gfpmut3 ([53]).” left out

LasR mutants [5] = assay: as above; type: cell-based, Pseudomonas aeruginosa; settings: W60F, Y56F, T75V, Y93F, S129A; competed against 3OC12-HSL at EC50 of each mutant
Text: as §7
as §2, with “The resulting amplicon was digested with EcoRI and BamHI and ligated into similarly digested pKS12A ([52]). The resulting plasmid with the aphA-3 promoter transcriptionally fused to lacZ was designated pVT19. For constitutive expression of the gfp reporter, we used E. coli DH5α with plasmid pUC18T-mini-Tn7T-Gm-gfpmut3 ([53]).” left out

[6] = IC50 ± CI, RhlR reporter, competed against 400 nM C4-HSL, 95% confidence interval in parentheses
[7] = read-out: IC50 ± CI, Constitutive reporter

T1 sequence (P25084 whole entry): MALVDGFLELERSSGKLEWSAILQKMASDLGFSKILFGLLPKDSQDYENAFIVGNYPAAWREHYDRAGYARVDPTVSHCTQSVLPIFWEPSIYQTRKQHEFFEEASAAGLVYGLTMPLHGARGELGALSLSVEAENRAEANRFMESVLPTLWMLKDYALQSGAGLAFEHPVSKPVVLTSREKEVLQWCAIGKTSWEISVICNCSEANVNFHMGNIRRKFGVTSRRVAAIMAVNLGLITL
T2 sequence (P54292 whole entry): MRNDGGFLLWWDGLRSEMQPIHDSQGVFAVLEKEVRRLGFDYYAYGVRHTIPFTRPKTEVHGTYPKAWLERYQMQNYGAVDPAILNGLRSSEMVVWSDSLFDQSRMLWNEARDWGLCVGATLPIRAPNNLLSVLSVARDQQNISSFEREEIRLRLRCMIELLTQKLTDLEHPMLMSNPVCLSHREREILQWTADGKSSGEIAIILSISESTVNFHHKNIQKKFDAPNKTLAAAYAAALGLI
T3 sequence (P25084 whole entry S129A): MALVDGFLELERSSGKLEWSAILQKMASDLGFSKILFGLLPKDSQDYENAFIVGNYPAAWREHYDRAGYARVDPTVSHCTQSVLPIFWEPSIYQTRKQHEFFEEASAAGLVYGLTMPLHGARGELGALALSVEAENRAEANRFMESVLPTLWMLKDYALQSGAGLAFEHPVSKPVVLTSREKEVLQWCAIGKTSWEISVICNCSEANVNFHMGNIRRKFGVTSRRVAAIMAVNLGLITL

COc1ccc(C=O)c(O)c1 [2-hydroxy-4-methoxybenzaldehyde]
IC50 (LasR): 1040 µM | IC50 (RhlR; [6]): 458 µM | IC50 [1]: 1960 µM | IC50 [2, 7]: 1360 µM

Cc1ccc(O)c(C=O)c1 [2-hydroxy-5-methylbenzaldehyde]
fold lower concentration inhibiting LasR-specific reporter than constitutive reporter (LasR): 1.3 fold | IC50 (LasR): 1500 µM | IC50 (RhlR; [6]): 1080 µM | IC50 [1]: 2020 µM | IC50 [2, 7]: 1790 µM

O=C/C=C/c1ccccc1 [Cinnamaldehyde]
IC50 (LasR): 851 µM | IC50 (RhlR; [6]): 1310 µM | IC50 [1]: 1460 µM | IC50 [2, 7]: 2850 µM

Cc1cc(O)cc(O)c1C=O [Orsellinaldehyde]
IC50 (LasR): 2370 µM | IC50 (RhlR; [6]): 956 µM | IC50 [1]: 2310 µM | calculated LD50 of orsellinaldehyde with GFP ([3]; E. coli constitutive GFP reporter, Fig. S1 legend): 1057 µM | IC50 ([3]; Escherichia coli, read-out: IC50, constitutive GFP reporter): 1060 µM | IC50 [2, 7]: 2750 µM | reduction of growth yield (E. coli): 10%–20%

O=C(O)c1ccccc1O [Salicylic acid, reference compound]
IC50 (RhlR; IC50, RhlR reporter, competed against C4-HSL): ~10000 µM | IC50 (RhlR; [6]): 10000 µM | IC50 [1]: 3650 µM | IC50 [2, 7]: 6260 µM

CCCCCCCCCC(=O)CC(=O)Nc1ccccc1 [V-06–018]
antagonism of LasR S129A mutant compared with wild-type LasR (LasR mutants [4]; competed against 3OC12-HSL at its EC50): significantly less active | IC50, LasR S129A mutant (LasR mutants [4]; insufficient antagonism): could not be determined

COc1cccc(C=O)c1O [ortho-Vanillin]
difference in IC50 with varying 3OC12-HSL concentration (competition test) (LasR; 3OC12-HSL at […] nM, 1 µM and 10 µM, P > 0.07): not significant | fold lower concentration inhibiting LasR-specific reporter than constitutive reporter (LasR): threefold | IC50 (LasR): 437 µM | change in potency with varying C4-HSL concentration (competition test) (RhlR; C4-HSL at 400 nM, 10 µM and 100 µM): significant C4-HSL concentration-dependent decrease in the potency | fold lower IC50 with RhlR than with constitutive lacZ reporter (RhlR; IC50 constitutive lacZ reporter vs RhlR reporter): fivefold | IC50 (RhlR; [6]): 151 µM | IC50 [1]: 1260 µM | IC50 ([2]; read-out: IC50, Constitutive reporter, Hill slope set at 1.0): 774 µM | IC50 [2, 7]: 872 µM | concentration until which there was no antagonism of the constitutive lacZ reporter ([2]; RhlR reporter conditions): > 500 µM | antagonism of LasR mutants compared with wild-type LasR (LasR mutants [5]): indistinguishable from that of the wild-type LasR
